In one data set the test system is unstimulated PBMCs. The data set is described as follows: Time course of lentiviral transduction of unstimulated PBMCs, 4 hours to less than 1 minute. In kind it is cell-based, human. Particulars: 10 μM during 4 hour transduction, replenished in recovery medium.
Data set [1] deals with transduced human PBMCs expressing a CAR in CHO, CHO-ROR2 or CHO-AXL tumors. The data set is described as follows: miRNA library in vivo screen: miRNA blocks recovered from tumors 20 days after dosing transduced PBMCs. Details: species or system mouse. Particulars: conclusion from miRNA constructs recovered from tumors at day 20. The source says: 108 gBlocks® Gene Fragments were used to generate a library of constructs each containing 4 miRNA precursors in series in positions 1 (P1), 2 (P2), 3 (P3), and 4 (P4). Each gBlock® was specific to P1, P2, P3, or P4 and contained a miR-155 framework (SEQ ID NO:457), including a 5′arm and a 3′arm as described in Example 17 of WO 2019/055946, in which a unique miRNA fragment targeting an mRNA transcript corresponding to 1 of 27 different genes was used to replace the miR-155 stem-loop precursor. For clarity, the sequences of miRNA fragments differed for each position P1-P4 even among miRNA fragments that targeted mRNA transcripts corresponding to the same gene. The gBlocks® for each position contained a unique 40 bp overlap sequence and the type IIs assembly method was used to assemble combinations of four gBlocks® in their prescribed order, to generate the library. By these methods, a total diversity of 531,441 unique constructs (27 miRNA at P1×27 miRNA at P2×27 miRNA at P3×27 miRNA at P4) was possible.
The library of miRNA constructs was separately cloned into the EF-1 alpha intron A of F1-1-315 and F1-2-314 to generate Library 315 and Library 314, respectively. In addition to the EF-1 alpha promoter, F1-1-315 included a CD8a signal peptide, an anti-ROR2:CD28:CD3z CAR, T2A, and an eTag. […]

For `Cc1cc(C)c(Nc2ccnc(Nc3ccc(C#N)cc3)n2)c(C)c1` [dapivirine], the inhibition of transduction result in the data set on unstimulated PBMCs is recorded as “inhibition of transduction”.
Same read-out and setting: for `C[C@@H]1CCO[C@H]2Cn3cc(C(=O)NCc4ccc(F)cc4F)c(=O)c(O)c3C(=O)N12` [dolutegravir] the value was “inhibition of transduction”.

B1: SMAD4: miRNA in miR-155 framework directed against SMAD4, SEQ ID NOs:406-409 (nucleic acid)
DNA 1: CGGCACCTGCGCTGCCGTTGGATCGGGGATGAAAGCTGGCGCTGGAGGCTTGCTGAAGGCTGTATGCTGAATTAGGTGTGTATGGTGCAGGTTTTGGCCACTGACTGACCTGCACCACACACCTAATTCAGGACACAAGGCCTGTTACTAGCACTCACATGGAACAAATGGCCCACATTGGTGCCGGATGAAGCTCTTATGTTGCGTCCCATCGCAGGTGCCT
DNA 2: CCTCACCTGCTTGCGTCCCATTCTGGAGGCTTGCTGAAGGCTGTATGCTGAAGTACTTCGTCTAGGAGCTGGTTTTGGCCACTGACTGACCAGCTCCTACGAAGTACTTCAGGACACAAGGCCTGTTACTAGCACTCACATGGAACAAATGGCCGTTGCCTGAGTCTTGGCAGCGAGAGATCACTAACTGCTAAGCAGGTGCTT
DNA 3: TGTCACCTGCACTAACTGCTAACTGGAGGCTTGCTGAAGGCTGTATGCTGTATCCCACGATCTACTCCCCGGTTTTGGCCACTGACTGACCGGGGAGTATCGTGGGATACAGGACACAAGGCCTGTTACTAGCACTCACATGGAACAAATGGCCGTGTTAATTGTCCATGTAGCGAGGCATCCTTATGGCGTGGGCAGGTGTCC
DNA 4: CCTTCACCTGCCTTATGGCGTGGCTGGAGGCTTGCTGAAGGCTGTATGCTGTTATGATGGTAAGTAGCTGGCGTTTTGGCCACTGACTGACGCCAGCTATACCATCATAACAGGACACAAGGCCTGTTACTAGCACTCACATGGAACAAATGGCCGGTGTCCGTTATCGGGGAAGAAGGTCGCGCACATAGCAGGTGTCC
modifications: Synthetic SMAD4 miRNA at P1; Synthetic SMAD4 miRNA at P2; Synthetic SMAD4 miRNA at P3; Synthetic SMAD4 miRNA at P4
For B1, the “effect of knocking down the transcript on T cells in the tumor microenvironment” value in data set [1] is recorded as “promote the survival and/or proliferation of T cells”.

Source of the values: US20210317408A1, “METHODS AND COMPOSITIONS FOR GENETICALLY MODIFYING LYMPHOCYTES IN BLOOD OR IN ENRICHED PBMCS” (Exuma Biotech Corp., priority 2018, published 2021).
